Data as given in US6472348B1, “Pyridone derivatives and herbicides” (Kumiai Chemical Industry Co., Ltd., priority 1996, dated 2002).

Legend:
Type in all cases: in vivo
bulrush (Sc) = assay: Test Example 1: herbicidal effects by paddy field soil treatment; settings: 100 g of the active ingredient per 10 ares, 21st day after the application, index 0-5 of Table 47;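 note: grade of growth control; 5 = at least 90%; 4 = 70 to 90%; 3 = 50 to 70%; 2 = 30 to 50%; 1 = 10 to 30%; 0 = under 10%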
Protocol: (§1) (Test on Herbicidal Effects by Paddy Field Soil Treatment)
(§2) In a plastic pot (surface area: 100 cm^2) filled with paddy field soil, barnyardgrass (Ec), monochoria (Mo) and bulrush (Sc) were sown after puddling and leveling, and flooded to a water depth of 3 cm. […] The dose was 100 g of the active ingredient per 10 ares. The plants were then cultured in a green house, and the evaluation of the herbicidal effects was conducted on the 21st day after the application in accordance with the standards as identified in Table 47.

monochoria (Mo) = assay: as above; settings: 100 g of the active ingredient per 10 ares, 21st day after the application, index 0-5 of Table 47;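 note: grade of growth control; 5 = at least 90%; 4 = 70 to 90%; 3 = 50 to 70%; 2 = 30 to 50%; 1 = 10 to 30%; 0 = under 10%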
Protocol: as §1, §2

barnyardgrass (Ec) [1] = assay: as above; settings: 100 g of the active ingredient per 10 ares, 21st day after the application, index 0-5 of Table 47
Protocol: as §1, §2

rice flatsedge (Ci) [2] = assay: Test Example 2: herbicidal effects by upland field soil treatment; settings: 100 g of the active ingredient per 10 ares;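 note: grade of growth control; 5 = at least 90%; 4 = 70 to 90%; 3 = 50 to 70%; 2 = 30 to 50%; 1 = 10 to 30%; 0 = under 10%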
Source text: (§3) (Test on Herbicidal Effects by Upland Field Soil Treatment)

Digitaria ciliaris (Di) = assay: as above; settings: 100 g of the active ingredient per 10 ares;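 note: grade of growth control; 5 = at least 90%; 4 = 70 to 90%; 3 = 50 to 70%; 2 = 30 to 50%; 1 = 10 to 30%; 0 = under 10%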
Source text: as §3

pale smartweed (Po) [3] = assay: as above; settings: 100 g of the active ingredient per 10 ares
Source text: as §3

[4] = test system: common lambsquarters (Ch); assay: as above; settings: 100 g of the active ingredient per 10 ares
Source text: as §3

barnyardgrass (Ec) [5] = assay: as above; settings: 100 g of the active ingredient per 10 ares
Source text: as §3

slender amaranth (Am) [6] = assay: as above; settings: 100 g of the active ingredient per 10 ares
Source text: as §3

rice flatsedge (Ci) [7] = assay: Test Example 3: herbicidal effects by upland field foliage treatment; design: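 grade of growth control; 5 = at least 90%; 4 = 70 to 90%; 3 = 50 to 70%; 2 = 30 to 50%; 1 = 10 to 30%; 0 = under 10%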; settings: 100 g of the active ingredient per 10 ares, evaluated on the 14th day after treatment
Protocol: (§4) (Test on Herbicidal Effects by Upland Field Foliage Treatment)
(§5) In a plastic pot (surface area: 120 cm^2) filled with sand, barnyardgrass (Ec), Diaitaria ciliaris (Di), pale smartweed (Po), slender amaranth (Am), common lambsquarters (Ch) and rice flatsedge (Ci) were sown and covered with soil and were cultured in a green house for 2 weeks. […] The plants were then cultured in the green house, and the evaluation of the herbicidal effects was conducted on the 14th day after the treatment in accordance with the standards as identified in Table 47. Symbol—represents “not tested”.

pale smartweed (Po) [8] = assay: as above; design: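 grade of growth control; 5 = at least 90%; 4 = 70 to 90%; 3 = 50 to 70%; 2 = 30 to 50%; 1 = 10 to 30%; 0 = under 10%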; settings: 100 g of the active ingredient per 10 ares, evaluated on the 14th day after treatment
Protocol: as §4, §5

[9] = test system: common lambsquarters (Ch); assay: as above; design: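 grade of growth control; 5 = at least 90%; 4 = 70 to 90%; 3 = 50 to 70%; 2 = 30 to 50%; 1 = 10 to 30%; 0 = under 10%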; settings: 100 g of the active ingredient per 10 ares, evaluated on the 14th day after treatment
Protocol: as §4, §5

barnyardgrass (Ec) [10] = assay: as above; design: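 grade of growth control; 5 = at least 90%; 4 = 70 to 90%; 3 = 50 to 70%; 2 = 30 to 50%; 1 = 10 to 30%; 0 = under 10%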; settings: 100 g of the active ingredient per 10 ares, evaluated on the 14th day after treatment
Protocol: as §4, §5

slender amaranth (Am) [11] = assay: as above; design: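 grade of growth control; 5 = at least 90%; 4 = 70 to 90%; 3 = 50 to 70%; 2 = 30 to 50%; 1 = 10 to 30%; 0 = under 10%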; settings: 100 g of the active ingredient per 10 ares, evaluated on the 14th day after treatment
Protocol: as §4, §5

Diaitaria ciliaris (Di) = assay: as above; design: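 grade of growth control; 5 = at least 90%; 4 = 70 to 90%; 3 = 50 to 70%; 2 = 30 to 50%; 1 = 10 to 30%; 0 = under 10%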; settings: 100 g of the active ingredient per 10 ares, evaluated on the 14th day after treatment
Protocol: as §4, §5

[12] = evaluated on the 21st day after application
[13] = 21st day after the application, index 0-5 of Table 47

| Structure (SMILES) | Herbicidal effects Sc (bulrush (Sc)) | Herbicidal effects Mo (monochoria (Mo)) | Herbicidal effects Ec (barnyardgrass (Ec) [1]) | Herbicidal effects Ci (rice flatsedge (Ci) [2]; [12]) | Herbicidal effects Di (Digitaria ciliaris (Di); [12]) | Herbicidal effects Po (pale smartweed (Po) [3]; [12]) | Herbicidal effects Ch [4, 12] | Herbicidal effects Ec (barnyardgrass (Ec) [5]; [12]) | Herbicidal effects Am (slender amaranth (Am) [6]; [12]) | Herbicidal effects Ci (rice flatsedge (Ci) [2]; [13]) | Herbicidal effects Po (pale smartweed (Po) [3]; [13]) | Herbicidal effects Ch [4, 13] | Herbicidal effects Ec (barnyardgrass (Ec) [5]; [13]) | Herbicidal effects Am (slender amaranth (Am) [6]; [13]) | also measured |
| --- | --- | --- | --- | --- | --- | --- | --- | --- | --- | --- | --- | --- | --- | --- | --- |
| Cn1c(C(F)(F)F)ccc(-c2cc(Cl)c(Cl)cc2Cl)c1=O [Compound 1-186] | 4 | 5 | 5 | 5 | 5 | 5 | 5 | 5 | 5 | – | – | – | – | – | – |
| Cn1c(C(F)(F)F)ccc(-c2ccc(Cl)c(Cl)c2)c1=O [Compound 1-185] | – | – | – | 5 | 5 | 4 | 5 | 5 | 5 | – | – | – | – | – | – |
| CNC(=O)COc1cc(-c2ccc(C(F)(F)F)n(C)c2=O)c(F)cc1Cl [Compound 1-209] | 5 | 5 | 5 | 5 | 4 | 5 | 5 | 4 | 5 | – | – | – | – | – | – |
| C#CCN1C(=O)CSc2cc(F)c(-c3ccc(C(F)(F)F)n(C)c3=O)cc21 [Compound 2-21] | 5 | 5 | 5 | 5 | 5 | 5 | 5 | 5 | 5 | – | – | – | – | – | – |
| Cn1c(C(F)(F)F)ccc(-c2cc(Sc3ncccn3)c(Cl)cc2Cl)c1=O [1-131] | 5 | 5 | 5 | – | – | – | – | – | – | 5 | 5 | 5 | 5 | 5 | Herbicidal effects Di (Digitaria ciliaris (Di); [13]): 5 |
| COc1cc(-c2ccc(C(F)(F)F)n(C)c2=O)ccc1Cl [1-108] | 5 | 5 | 5 | – | – | – | – | – | – | 5 | 5 | 5 | 5 | 5 | Herbicidal effects Ci (rice flatsedge (Ci) [7]): 5; Herbicidal effects Po (pale smartweed (Po) [8]): 5; Herbicidal effects Ch [9]: 5; Herbicidal effects Ec (barnyardgrass (Ec) [10]): 5; Herbicidal effects Am (slender amaranth (Am) [11]): 5; Herbicidal effects Di (Diaitaria ciliaris (Di)): 5 |
| Cn1c(C(F)(F)F)ccc(-c2cc(Oc3nc(Cl)cs3)c(Cl)cc2F)c1=O [1-103] | 5 | 5 | 5 | – | – | – | – | – | – | 5 | 5 | 5 | 4 | 5 | Herbicidal effects Di (Digitaria ciliaris (Di); [13]): 5 |
| CCOCc1cc2c(-c3ccc(C(F)(F)F)n(C)c3=O)c(Cl)cc(Cl)c2o1 [Compound 4-30] | 5 | 5 | 5 | 5 | 5 | 5 | 5 | 5 | 5 | – | – | – | – | – | – |
| Cn1c(C(F)(F)F)ccc(-c2cc3c(cc2Cl)OCC(=O)N3)c1=O [Compound 2-27] | 5 | 5 | 5 | 5 | 5 | 5 | 5 | 5 | 5 | – | – | – | – | – | – |
| C#CCOc1cc(-c2c(C#N)cc(C(F)(F)F)n(C)c2=O)c(F)cc1Cl [Compound No. 11-6, 3-[2-fluoro-4-chloro-5-(2-propionyloxy)phenyl]-4-cyano-1-methyl-6-trifluoromethyl-2(1H)-pyridone] | 5 | 5 | 5 | 5 | 5 | 5 | 5 | 5 | 5 | – | – | – | – | – | – |
| Cn1c(C(F)(F)F)ccc(-c2ccc(Cl)cc2)c1=O [Compound No. 1-1] | 5 | 5 | 5 | – | – | – | – | – | – | 5 | 5 | 5 | 5 | 5 | Herbicidal effects Di (Digitaria ciliaris (Di); [13]): 5 |
| Cc1ccc(-c2ccc(Cl)cc2)c(=O)[nH]1 [comparative agent, reference compound] | – | – | – | 0 | 0 | 0 | 0 | 0 | 0 | – | – | – | – | – | – |
